≈ marks a conversion by molar mass, not a printed value.
Columns and labels:
MDR1 = MDR1 (Homo sapiens (Human), UniProt P08183); test: in vitro; details: MDCK-MDR1
IRAK4 = IRAK4 (Homo sapiens (Human), UniProt Q9NWZ3); test: IRAK4 MSD biochemical assay (2-hour 1 mM ATP); details: 0.1 nM IRAK4, 1 mM ATP, 2 hour at room temperature
[1] = Kinetic solubility assay (CLND), pH 6.8; assay type: physicochemical; details: aqueous buffer, kinetic from dmso stock; potassium phosphate buffer pH 6.8, 2% DMSO, 24 hours at ambient temperature

Chain of MDR1 (P08183 whole entry): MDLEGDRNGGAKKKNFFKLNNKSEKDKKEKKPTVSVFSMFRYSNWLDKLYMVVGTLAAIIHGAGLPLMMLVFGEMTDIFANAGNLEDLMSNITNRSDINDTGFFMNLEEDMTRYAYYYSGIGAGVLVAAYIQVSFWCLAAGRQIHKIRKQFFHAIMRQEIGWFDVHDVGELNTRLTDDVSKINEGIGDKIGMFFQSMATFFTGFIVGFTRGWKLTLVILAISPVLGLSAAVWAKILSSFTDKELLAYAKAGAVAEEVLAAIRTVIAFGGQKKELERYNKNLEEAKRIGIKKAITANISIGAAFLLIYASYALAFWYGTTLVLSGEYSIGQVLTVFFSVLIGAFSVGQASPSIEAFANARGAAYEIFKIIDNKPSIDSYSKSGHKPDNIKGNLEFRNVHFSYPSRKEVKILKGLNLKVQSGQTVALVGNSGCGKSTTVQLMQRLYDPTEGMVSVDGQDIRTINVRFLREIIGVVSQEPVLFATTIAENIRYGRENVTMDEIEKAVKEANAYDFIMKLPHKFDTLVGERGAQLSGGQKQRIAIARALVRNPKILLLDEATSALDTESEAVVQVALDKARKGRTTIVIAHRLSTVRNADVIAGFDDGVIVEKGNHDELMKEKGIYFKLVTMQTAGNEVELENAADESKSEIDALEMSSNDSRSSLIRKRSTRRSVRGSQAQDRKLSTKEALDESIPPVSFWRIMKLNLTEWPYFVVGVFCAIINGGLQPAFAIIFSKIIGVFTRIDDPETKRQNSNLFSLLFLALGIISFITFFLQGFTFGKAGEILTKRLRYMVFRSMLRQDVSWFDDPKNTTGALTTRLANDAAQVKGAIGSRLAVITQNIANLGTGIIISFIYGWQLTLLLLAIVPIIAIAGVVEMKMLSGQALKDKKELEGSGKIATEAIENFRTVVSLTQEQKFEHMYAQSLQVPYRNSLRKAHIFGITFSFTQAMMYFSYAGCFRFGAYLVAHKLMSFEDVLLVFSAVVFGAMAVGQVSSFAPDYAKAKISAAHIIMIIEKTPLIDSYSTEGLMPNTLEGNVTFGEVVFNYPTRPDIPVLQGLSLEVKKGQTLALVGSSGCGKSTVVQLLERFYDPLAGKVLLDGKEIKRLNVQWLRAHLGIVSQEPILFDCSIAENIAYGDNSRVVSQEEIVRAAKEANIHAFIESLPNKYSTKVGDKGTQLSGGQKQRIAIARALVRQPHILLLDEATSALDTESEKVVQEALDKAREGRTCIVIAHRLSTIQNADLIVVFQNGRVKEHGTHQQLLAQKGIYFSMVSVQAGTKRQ
Chain of IRAK4 (Q9NWZ3 whole entry): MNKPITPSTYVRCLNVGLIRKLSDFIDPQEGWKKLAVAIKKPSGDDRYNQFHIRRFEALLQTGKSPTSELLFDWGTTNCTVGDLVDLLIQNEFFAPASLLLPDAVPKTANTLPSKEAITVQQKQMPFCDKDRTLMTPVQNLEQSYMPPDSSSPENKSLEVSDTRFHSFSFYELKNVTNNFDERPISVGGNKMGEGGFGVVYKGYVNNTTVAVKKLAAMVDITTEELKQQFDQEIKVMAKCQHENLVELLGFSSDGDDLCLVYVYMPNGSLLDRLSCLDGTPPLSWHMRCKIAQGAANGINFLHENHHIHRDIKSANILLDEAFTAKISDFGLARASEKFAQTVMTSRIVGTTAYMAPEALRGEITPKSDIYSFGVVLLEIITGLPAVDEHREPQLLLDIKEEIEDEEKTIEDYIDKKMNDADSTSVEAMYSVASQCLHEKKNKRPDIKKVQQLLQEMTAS

Compound: C[C@@H](CF)Oc1cc2nc(C34CCC(C)(C3)OC4)cn2cc1C(=O)Nc1cccn(C2CC2)c1=O (mixture of isomers) [Example 30, N-(1-cyclopropyl-2-oxo-1,2-dihydropyridin-3-yl)-7-(((S)-1-fluoropropan-2-yl)oxy)-2-(1-methyl-2-oxabicyclo[2.2.1]heptan-4-yl)imidazo[1,2-a]pyridine-6-carboxamide]
- efflux ratio at 120 min, 1 μM (MDR1): 11.1
- IC50 (IRAK4): 0.2 nM
- solubility kinetic at 24 h [1]: 46.5 µg/mL

Compound: CC(C)Oc1cc2nc([C@]34CC[C@](C)(C3)OC4)cn2cc1C(=O)Nc1cccn(C2CC2F)c1=O (mixture of isomers) [Example 100, N-(1-(2-fluorocyclopropyl)-2-oxo-1,2-dihydropyridin-3-yl)-7-isopropoxy-2-((1R,4S)-1-methyl-2-oxabicyclo[2.2.1]heptan-4-yl)imidazo[1,2-a]pyridine-6-carboxamide]
- efflux ratio at 120 min, 1 μM (MDR1): 12.6
- IC50 (IRAK4): 0.6 nM
- solubility kinetic at 24 h [1]: 27.6 µg/mL

Compound: O=C(Nc1cccn(C2CC2F)c1=O)c1cn2cc([C@]34CO[C@](CF)(C3)C4)nc2nc1OC1CCC1 (mixture of isomers) [Example 106, (rac)-Cis-7-cyclobutoxy-N-(1-(2-fluorocyclopropyl)-2-oxo-1,2-dihydropyridin-3-yl)-2-(1-(fluoromethyl)-2-oxabicyclo[2.1.1]hexan-4-yl)imidazo[1,2-a]pyrimidine-6-carboxamide]
- efflux ratio at 120 min, 1 μM (MDR1): 12.8
- IC50 (IRAK4): 0.5 nM
- solubility kinetic at 24 h [1]: 44.4 µg/mL

Compound: CC12CC(c3cn4cc(C(=O)Nc5cccn([C@@H]6C[C@@H]6F)c5=O)c(OC5CCC5)cc4n3)(CO1)C2 (racemic) [Example 85, (rac)-Cis-7-cyclobutoxy-N-(1-(2-fluorocyclopropyl)-2-oxo-1,2-dihydropyridin-3-yl)-2-(1-methyl-2-oxabicyclo[2.1.1]hexan-4-yl)imidazo[1,2-a]pyridine-6-carboxamide]
- efflux ratio at 120 min, 1 μM (MDR1): 7.7
- IC50 (IRAK4): 0.6 nM
- solubility kinetic at 24 h [1]: 44.5 µg/mL (≈ 93 µM)

Compound: O=C(Nc1cccn([C@@H]2C[C@@H]2F)c1=O)c1cn2cc(C34COC(C3)C4)nc2nc1OC1CCC1 (racemic) [Example 86, (rac)-Cis-2-(2-oxabicyclo[2.1.1]hexan-4-yl)-7-cyclobutoxy-N-(1-(2-fluorocyclopropyl)-2-oxo-1,2-dihydropyridin-3-yl)imidazo[1,2-a]pyrimidine-6-carboxamide]
- efflux ratio at 120 min, 1 μM (MDR1): 0.9
- IC50 (IRAK4): 0.8 nM
- solubility kinetic at 24 h [1]: 44.9 µg/mL (≈ 96.5 µM)

Compound: CC12CC(c3cn4cc(C(=O)Nc5cccn(C6C[C@@H]6F)c5=O)c(OC5CCC5)nc4n3)(CO1)C2 (mixture of isomers) [Example 103, (rac)-Cis-7-cyclobutoxy-N-(1-(2-fluorocyclopropyl)-2-oxo-1,2-dihydropyridin-3-yl)-2-(1-methyl-2-oxabicyclo[2.1.1]hexan-4-yl)imidazo[1,2-a]pyrimidine-6-carboxamide]
- efflux ratio at 120 min, 1 μM (MDR1): 12.8
- IC50 (IRAK4): 0.4 nM
- solubility kinetic at 24 h [1]: 58.8 µg/mL (≈ 123 µM)

Compound: CC12CC(c3cn4cc(C(=O)Nc5cccn([C@@H]6C[C@@H]6F)c5=O)c(OC5CC5)cc4n3)(CO1)C2 (racemic) [Example 105, (rac)-Cis-7-cyclopropoxy-N-(1-(2-fluorocyclopropyl)-2-oxo-1,2-dihydropyridin-3-yl)-2-(1-methyl-2-oxabicyclo[2.1.1]hexan-4-yl)imidazo[1,2-a]pyridine-6-carboxamide]
- efflux ratio at 120 min, 1 μM (MDR1): 15.8
- IC50 (IRAK4): 0.7 nM
- solubility kinetic at 24 h [1]: 38.7 µg/mL (≈ 83.3 µM)

Compound: Cc1cnc2c(NC(=O)c3cn4cc([C@@]56CC[C@@](C)(C5)OC6)nc4cc3OC(C)C)cnn2c1 (single isomer, unassigned) [Comparator 3B, reference compound]
- efflux ratio at 120 min, 1 μM (MDR1): 2
- IC50 (IRAK4): 0.1 nM
- solubility kinetic at 24 h [1]: 0.7 µg/mL (≈ 1.52 µM)

Compound: CC(C)Oc1nc2nc([C@@]34CC[C@@](C)(C3)OC4)cn2cc1C(=O)Nc1ccn(C)n1 (single isomer, unassigned) [Comparator 4C, reference compound]
- efflux ratio at 120 min, 1 μM (MDR1): 4.6
- IC50 (IRAK4): 2.5 nM
- solubility kinetic at 24 h [1]: 51.3 µg/mL (≈ 125 µM)

Compound: CC[C@@H](C)Oc1cc2nc(C34COC(CF)(C3)C4)cn2cc1C(=O)Nc1cccn(C2CC2)c1=O (single isomer, unassigned) [Example 14]
- efflux ratio at 120 min, 1 μM (MDR1): 4.8
- IC50 (IRAK4): 1.3 nM
- solubility kinetic at 24 h [1]: 75.7 µg/mL (≈ 158 µM)

Compound: C[C@@]12CC[C@@](c3cn4cc(C(=O)Nc5cccn(C6CC6)c5=O)c(OC5CCC5)nc4n3)(CO1)C2 (single isomer, unassigned) [Example 16]
- efflux ratio at 120 min, 1 μM (MDR1): 2.8
- IC50 (IRAK4): 0.3 nM
- solubility kinetic at 24 h [1]: 5.2 µg/mL (≈ 10.9 µM)

Compound: C[C@]12CC[C@](c3cn4cc(C(=O)Nc5cccn(C6CC6)c5=O)c(OC5CCC5)nc4n3)(CO1)C2 (single isomer, unassigned) [Example 17]
- efflux ratio at 120 min, 1 μM (MDR1): 3.9
- IC50 (IRAK4): 0.5 nM
- solubility kinetic at 24 h [1]: 8.5 µg/mL (≈ 17.9 µM)

Compound: CC[C@@H](C)Oc1cc2nc([C@@]34CC[C@@](C)(C3)OC4)cn2cc1C(=O)Nc1cccn(C2CC2)c1=O (single isomer, unassigned) [Example 21]
- efflux ratio at 120 min, 1 μM (MDR1): 3.2
- IC50 (IRAK4): 0.9 nM
- solubility kinetic at 24 h [1]: 61.3 µg/mL (≈ 129 µM)

Compound: CC[C@H](C)Oc1cc2nc([C@@]34CC[C@@](C)(C3)OC4)cn2cc1C(=O)Nc1cccn(C2CC2)c1=O (single isomer, unassigned) [Example 22]
- efflux ratio at 120 min, 1 μM (MDR1): 4.3
- IC50 (IRAK4): 0.3 nM
- solubility kinetic at 24 h [1]: 69 µg/mL (≈ 145 µM)

Compound: C[C@]12CC[C@](c3cn4cc(C(=O)Nc5cccn(C6CC6)c5=O)c(OC5CCC5)cc4n3)(CO1)C2 (single isomer, unassigned) [Example 26]
- efflux ratio at 120 min, 1 μM (MDR1): 4.1
- IC50 (IRAK4): 0.7 nM
- solubility kinetic at 24 h [1]: 65.3 µg/mL (≈ 138 µM)

Compound: CC(C)Oc1cc2nc([C@@]34CC[C@@H](C3)OC4)cn2cc1C(=O)Nc1cccn(C2CC2)c1=O (single isomer, unassigned) [Example 39]
- efflux ratio at 120 min, 1 μM (MDR1): 6.8
- IC50 (IRAK4): 0.2 nM
- solubility kinetic at 24 h [1]: 68.9 µg/mL (≈ 154 µM)

Compound: CC(C)Oc1cc2nc([C@]34CC[C@H](C3)OC4)cn2cc1C(=O)Nc1cccn(C2CC2)c1=O (single isomer, unassigned) [Example 40]
- efflux ratio at 120 min, 1 μM (MDR1): 7.5
- IC50 (IRAK4): 0.4 nM
- solubility kinetic at 24 h [1]: 70.2 µg/mL (≈ 157 µM)

Compound: CC[C@@H](C)Oc1nc2nc(C34COC(C)(C3)C4)cn2cc1C(=O)Nc1cccn([C@H]2C[C@H]2F)c1=O (single isomer, unassigned) [Example 58]
- efflux ratio at 120 min, 1 μM (MDR1): 9
- IC50 (IRAK4): 0.4 nM
- solubility kinetic at 24 h [1]: 72.1 µg/mL (≈ 150 µM)

Compound: CC[C@H](C)Oc1nc2nc(C34COC(C)(C3)C4)cn2cc1C(=O)Nc1cccn([C@H]2C[C@H]2F)c1=O (single isomer, unassigned) [Example 60]
- efflux ratio at 120 min, 1 μM (MDR1): 9
- IC50 (IRAK4): 0.2 nM
- solubility kinetic at 24 h [1]: 55.5 µg/mL (≈ 115 µM)

Compound: CC[C@H](C)Oc1nc2nc(C34COC(C)(C3)C4)cn2cc1C(=O)Nc1cccn(C2CC2)c1=O (single isomer, unassigned) [Example 64]
- efflux ratio at 120 min, 1 μM (MDR1): 5
- IC50 (IRAK4): 0.5 nM
- solubility kinetic at 24 h [1]: 49.6 µg/mL (≈ 107 µM)

Compound: CC(C)Oc1c(C(=O)Nc2cccn(C3CC3)c2=O)cn2cc([C@]34CC[C@](C)(C3)OC4)nc2c1F (single isomer, unassigned) [Example 68]
- efflux ratio at 120 min, 1 μM (MDR1): 2.2
- IC50 (IRAK4): 4.3 nM
- solubility kinetic at 24 h [1]: 53.6 µg/mL (≈ 112 µM)

Compound: CC(C)Oc1cc2nc([C@@H]3COCCO3)cn2cc1C(=O)Nc1cccn(C2CC2)c1=O (single isomer, unassigned) [Example 69]
- efflux ratio at 120 min, 1 μM (MDR1): 4.7
- IC50 (IRAK4): 0.3 nM
- solubility kinetic at 24 h [1]: 6.1 µg/mL (≈ 13.9 µM)
